Data taken from patent US9938240B2, “Fluorinated derivatives of 3-hydroxypyridin-4-ones” (Apotex Technologies Inc., priority 2009, dated 2018).

Experiments:
[1] = tested on: human neuroblastoma MC-65 cells; test: cells; conditions: for EC100 / minimal effective concentration: Homo sapiens, MC65, 48 h; for EC100: read-out: EC100 (maximum effective concentration); for minimal effective concentration: read-out: TH (threshold protective concentration); for CC2 (cytotoxic concentration): MC-65, cultured without tetracycline; for CC2 (cytotoxic concentration) / CC1 (cytotoxic concentration): viability below 80%; for CC1 (cytotoxic concentration): MC-65, presence of TET
Summary of the method: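 MC-65 cells (conditional Aβ fusion-protein expression, TET-repressed) were washed free of TET and FBS, then exposed to compound ~48 h in serum-free medium without or with 1 μg/mL TET.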

[2] = pKa determination by spectrophotometric titration; format: physicochemical; conditions: for pKa: 0.1 M NaCl solution, read-out: pKa (amine); for Logβ011 / Logβ012 / Logβ013: cumulative ligand protonation; for Logβ011 / Logβ012 / Logβ013 / pKa1(L) / pKa2(L) / pKa3(L): Example 53; for pKa1(L) / pKa2(L) / pKa3(L): ligand, spectrophotometric titration
Method: The pKa values of ligands can be determined by spectrophotometric titration when both the conjugated acid and base absorb in the UV-visible region. In a typical experiment, the sample solution was prepared by the following method: Apo7041 stock solution (12.74 mg) was weighed into a 10 mL volumetric flask, and 0.1 M NaCl solution was added to volume. The mixture was sonicated and voltexed to give a clear colorless solution. The concentration of Apo7041 of this stock solution is 5.1×10^−3 M.
Apo7041 sample solution: 727 μL of the above stock solution was transferred into a 50 mL volumetric flask by using a 1000 μL digital pipet, and 0.1 M NaCl was added to volume. The resulting solution was vortexed to mix to give a sample solution. The concentration of Apo7041 of this sample solution is 7.4×10^−5 M. 20 mL of the sample solution was transferred into a 35 mL beaker by using a 10 mL digital pipet. The sample solution was circulated between the beaker and the flow cell using a sipper system.
The sample solution was titrated against standard hydrochloric acid solutions at 22° C. to reach pH 1.11. After each addition of acid the solution was allowed to equilibrate until a constant pH reading was reached. The pH and the UV-Vis spectrum were recorded for each measurement. The solution was titrated until there was no obvious change in the spectra after several subsequent additions of acid. Thus, 30 measurements were recorded.
The resulting data set was then analyzed using pHAB (Peter Gans, University of Leeds). The pKa values were obtained using the model: LH+H^+⇄LH2^+, and LH2^++H^+⇄LH3^2+ (pKa3). Thus, Apo7041 has pKa2=3.51, and pKa3=1.23 as determined spectrophotometrically.
The pKa values of Apo7323 were determined by spectrophotometric titration using an Agilent 8453 UV-visible spectroscopy system (see Example 26).

[3] = Stepwise formation constants for Cu-ligand system by potentiometric titration; format: physicochemical; conditions: for pCu^2+: pH 7.4, ligand 10 μM, metal 1 μM
Method: In a typical experiment, the sample solution was prepared by the following method: Apo7041 (126.1 mg, 0.50 mmol) was weighed into a 50 mL volumetric flask, and about 35 mL of a mixed solvent (0.1 M NaCl aqueous:MeOH, 1:1, v:v) was added. The mixture was sonicated for 10 min to give a clear colorless solution. The copper stock solution (atomic absorption standard, Aldrich, 6.33 mL, 0.10 mmol) was pipetted into the solution. More of the mixed solvent was added to volume and the resulting solution was vortexed to mix. The molar ratio between the total copper and the total Apo7041 was 1/5. 40 mL of the solution was transferred into a T70 titration cell by using a 10 mL digital pipet. A 6.000 N sodium hydroxide solution (300 μL) was added, and the pH (12.17) of the solution was recorded. The solution was allowed to equilibrate at 22° C. for 5 min.
The solution was then titrated against a 6.000 N hydrochloric acid solution at 22° C. by using a Mettler Toledo T70 autotitrator, until the pH reached 1.5. The volume of acid added and the pH reading were recorded. Thus, 533 measurements were taken for this experiment.
The data set of pH vs. acid volume for Cu-Apo7041 system was analyzed using Hyperquad 2000 software (version 2.1, Peter Gans, University of Leeds). The formation constants for Cu-Apo7041 system were optimized using the model shown in the first column of Table 29C. The results are shown in the second and third column.
pM^n+ is defined as −log [M(H2O)m]^n+ at physiological conditions, i.e.: pH 7.4, a ligand concentration of 10 μM, and a metal concentration of 1 μM. To calculate pM^n+ for a MLn system, βn and pKa values are needed (βn are the formation constants for M^n++n L^−⇄MLn; pKa are the equilibrium constants for L^−+n H^+⇄LHn^(n-1)+). The pM^n+ is calculated using the HySS software (HYSS© 2000 Protonic Software).

[4] = 0.1M aqueous NaCl/MeOH, 1/1, v/v
[5] = 0.1M aqueous NaCl/MeOH, 1/1, v/v, listed as drawing 104
[6] = spectrophotometric, 0.1 M NaCl, 22° C.

SMILES	EC100 [1]	minimal effective concentration [1]	CC2 (cytotoxic concentration) [1]	CC1 (cytotoxic concentration) [1]	pKa ([2]; amino group of the ligand)	Logβ011 [2]	Logβ012 [2]	Logβ013 [2]	pKa1(L) [2]	pKa2(L) [2]	pKa3(L) [2]	Log β120 (Cu2+) [3, 4]	pCu^2+ [3]	further results
Cc1c(O)c(=O)c(C(N2CCOCC2)C(F)(F)F)cn1C (stereo not drawn) [Apo7435, 3-hydroxy-1,2-dimethyl-5-(2,2,2-trifluoro-1-morpholinoethyl)pyridin-4(1H)-one]	10 µM	1 µM	40 µM	40 µM	2.5	9.8	12.3	12.3	9.8	2.5	0.0			
CN(C)C(c1c(O)c(=O)ccn1C)C(F)(F)F (stereo not drawn) [Apo7041, 2-[1-(dimethylamino)-2,2,2-trifluoroethyl]-3-hydroxy-1-methylpyridin-4(1H)-one]	10 µM	0.1 µM	80 µM	10 µM	3.5							17.3	pCu^2+ = 7.7	Log β121 (Cu2+) [3, 4]: 23.0; Log β122 (Cu2+) [3, 4]: 27.9; Logβ111 (Cu2+) [3, 4]: Logβ111 = 14.1; Log β120 (Cu2+) [3, 5]: Logβ120 = 17.3; Log β121 (Cu2+) [3, 5]: Logβ121 = 23.0; Log β122 (Cu2+) [3, 5]: Logβ122 = 27.9; pKa (amine) ([2]; amino group of the ligand): 3.51; pKa2 [2, 6]: 3.51; pKa3 [2, 6]: 1.23
O=c1ccn(CC(F)(F)F)c(CN2CCOCC2)c1O [Apo7323, 3-hydroxy-2-(morpholinomethyl)-1-(2,2,2-trifluoroethyl)pyridin-4(1H)-one]	20 µM	1 µM	80 µM	80 µM	4.2	9.2	13.4	14.2	9.2	4.2	0.8			
CN(C)Cc1c(O)c(=O)ccn1CC(F)(F)F [Apo7067, 2-[(dimethylamino)methyl]-3-hydroxy-1-(2,2,2-trifluoroethyl)pyridin-4(1H)-one]	10 µM	0.1 µM	80 µM	80 µM	6.1	9.6	15.7	16.5	9.6	6.1	0.8			
Cc1c(O)c(=O)ccn1C [Deferiprone, 3-hydroxy-1,2-dimethylpyridin-4(1H)-one, reference compound]												20.5	pCu^2+ = 9.9	Logβ1 (Cu2+) [3, 4]: Logβ1 = 10.8; Logβ2 (Cu2+) [3, 4]: Logβ2 = 20.5
CNC(c1cn(C)c(C)c(O)c1=O)C(F)(F)F (stereo not drawn) [Apo7056, 3-Hydroxy-1,2-dimethyl-5-[2,2,2-trifluoro-1-(methylamino)ethyl]pyridin-4(1H)-one]	10 µM	0.1 µM	80 µM	80 µM		9.8	14.7	15.1	9.8	4.9	0.4			
